{"source": "patent US20260014232A1", "about": "“Pharmaceutical Composition of GLP-1 and GIP Receptor Dual Agonist and Use Thereof” (Jiangsu Hengrui Pharmaceuticals Co., Ltd., priority 2021, published 2026)", "key": {"[1]": {"biological_target": "human glucose-dependent insulinotropic polypeptide receptor (GIPR) (human) (UniProt P48546)", "test": "cell-based or functional assay"}, "[2]": {"test": "Stability of compounds in human plasma (LC-MS)", "format": "in vitro ADME", "quoted_text": "5 μL of each of samples at concentrations of 20 ng/ml, 50 ng/ml, 100 ng/ml, 200 ng/ml, 500 ng/mL, 1000 ng/mL, 2000 ng/mL, 5000 ng/mL, and 10000 ng/mL was added to 45 μL of human plasma. The content of the compounds in the samples was determined by the LC-MS method and a standard curve was formed. 5 μL of a 1 mg/mL polypeptide solution was added to 45 μL of human plasma. […] With the content at 0 min as the standard (100%), the relative content of the retained compounds in the samples at other time points was calculated."}, "[3]": {"test": "Body weight of diet-induced-obesity mice after subcutaneous administration", "format": "in vivo, C57BL/6 mice", "conditions": "induced-obesity mice, 10 nmol/kg", "procedure": "High-fat food-induced-obesity male C57BL/6 mice (weighing 35-55 g, aged 10-12 weeks, purchased from Shanghai Jiesijie Laboratory Animal Co., Ltd.) were tested. […] According to the experimental design, the body weight of each mouse was measured and recorded on day 0, day 3, day 6, and so on to day 27, the average body weight of each group of mice was calculated, and body weight change curves were plotted by taking the body weight on the first day as the standard. At the end, the fat and other visceral organs of each part of the mice were taken out and weighed, and the viscera/brain ratio for fat in each part of each mouse was calculated. The effect of the drug on the fat was determined by comparing the change in the viscera/brain ratio for fat of different parts of each group of mice."}, "[4]": {"test": "Blood glucose in normal mice after single subcutaneous administration and intraperitoneal glucose", "format": "in vivo, C57BL/6 mice", "conditions": "for Blood glucose: glucose i.p. 18 h later, mean ± SD", "procedure": "18 h later, a glucose solution at a concentration of 0.2 g/mL was intraperitoneally injected. Blood glucose values were measured by collecting blood from the tail of mice at time points of 0 min, 15 min, 30 min, 60 min, and 120 min according to the experimental design. The specific procedures were as follows: the mouse was physically immobilized with the tail exposed, a little part was cut off at the tail end, then the tail was squeezed to bleed, and blood glucose was determined using a Roche active glucometer after the 1st drop of blood was discarded. The area under the blood glucose curve (AUC) was calculated from the results of all time points."}, "[5]": {"biological_target": "T1, human glucagon-like peptide-1 receptor (GLP-1R) (human, UniProt P43220 24-463)", "test": "cell-based or functional assay"}, "[6]": {"biological_target": "T2, human glucose-dependent insulinotropic polypeptide receptor (GIPR) (human, UniProt P48546 22-466)", "T2 sequence (looked up)": "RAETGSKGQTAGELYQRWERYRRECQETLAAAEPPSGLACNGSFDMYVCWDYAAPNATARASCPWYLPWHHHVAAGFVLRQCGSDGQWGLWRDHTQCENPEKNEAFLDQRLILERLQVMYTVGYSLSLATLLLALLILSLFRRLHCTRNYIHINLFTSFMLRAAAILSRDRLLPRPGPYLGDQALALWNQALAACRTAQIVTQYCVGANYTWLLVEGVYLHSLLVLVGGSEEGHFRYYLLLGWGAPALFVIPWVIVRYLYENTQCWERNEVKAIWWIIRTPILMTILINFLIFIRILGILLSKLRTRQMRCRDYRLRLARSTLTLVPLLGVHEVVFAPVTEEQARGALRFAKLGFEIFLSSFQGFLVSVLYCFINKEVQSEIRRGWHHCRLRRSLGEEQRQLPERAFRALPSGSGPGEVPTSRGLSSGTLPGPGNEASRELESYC", "test": "cell-based or functional assay"}, "[7]": {"biological_target": "T1, human glucagon-like peptide-1 receptor …", "test": "cell-based or functional assay", "remark": "listed apart in the source"}, "[8]": {"biological_target": "T2, human glucose-dependent insulinotropic …", "test": "cell-based or functional assay", "remark": "listed apart in the source"}}, "note": "Where two headings read alike, the source gives them in different places. Starred links: 1 amine or outer side, 2 acyl side, 3 side chain; linkers in the order of their positions; H or OH if unused. Non-standard residues stand in square brackets, D forms with d. Residues, ends and D or L forms follow the SMILES beside them. Groups on a side chain read outwards from the residue. No end group written: not given here. *: point of attachment. C20 diacid = O=C(O)CCCCCCCCCCCCCCCCCCC(=O)*; Arachidoyl = CCCCCCCCCCCCCCCCCCCC(=O)*; γGlu = O=C(O)[C@H](CCC(=O)[*:2])N[*:1]; AEEA = NCCOCCOCC(=O)O; Aib = CC(C)(N)C(=O)O", "data": [{"molecule": "Semaglutide (peptide)", "values": [{"measurement": "Activity against human GIPR (EC50 nM); cAMP HTRF, CHO-K1 cells overexpressing hGIP receptor", "setting": "[1]", "result": "> 10", "unit": "nM"}]}, {"molecule": "Natural GIP (from UniProt P09681 52-93) (ligand)", "values": [{"measurement": "Activity against human GIPR (EC50 nM); cAMP HTRF, CHO-K1 cells overexpressing hGIP receptor", "setting": "[1]", "result": 0.006, "unit": "nM"}]}, {"molecule": "CC[C@H](C)[C@H](NC(=O)[C@H](CCCCN)NC(=O)[C@H](CC(=O)O)NC(=O)[C@H](CCCCNC(=O)COCCOCCNC(=O)COCCOCCNC(=O)CC[C@H](NC(=O)CCCCCCCCCCCCCCCCCCC(=O)O)C(=O)O)NC(=O)[C@H](Cc1ccc(O)cc1)NC(=O)[C@@H](NC(=O)[C@H](CO)NC(=O)[C@H](Cc1ccc(O)cc1)NC(=O)[C@H](CC(=O)O)NC(=O)[C@H](CO)NC(=O)[C@@H](NC(=O)[C@H](Cc1ccccc1)NC(=O)[C@@H](NC(=O)CNC(=O)[C@H](CCC(=O)O)NC(=O)C(C)(C)NC(=O)[C@@H](N)Cc1ccc(O)cc1)[C@@H](C)O)[C@@H](C)O)[C@@H](C)CC)C(=O)N[C@@H](C)C(=O)N[C@@H](C)C(=O)N[C@@H](CCC(N)=O)C(=O)N[C@@H](CCC(=O)O)C(=O)N[C@@H](Cc1ccccc1)C(=O)N[C@H](C(=O)N[C@@H](CC(N)=O)C(=O)N[C@@H](Cc1c[nH]c2ccccc12)C(=O)N[C@@H](CC(C)C)C(=O)N[C@@H](CC(C)C)C(=O)N[C@@H](C)C(=O)NCC(=O)NCC(=O)N1CCC[C@H]1C(=O)N[C@@H](CO)C(=O)N[C@@H](CO)C(=O)NCC(=O)N[C@@H](C)C(=O)N1CCC[C@H]1C(=O)N1CCC[C@H]1C(=O)N1CCC[C@H]1C(=O)N[C@@H](CO)C(N)=O)C(C)C", "note": "[Compound 7#] (H-Y[Aib]EGTFTSDYSIYK([AEEA-AEEA-γGlu-C20 diacid])DKIAAQEFVNWLLAGGPSSGAPPPS-NH2)", "values": [{"measurement": "Relative content of compounds retained in plasma", "setting": "[2]; 0 min", "result": 100.00, "unit": "%"}, {"measurement": "Relative content of compounds retained in plasma", "setting": "[2]; 240 min", "result": 102.15, "unit": "%"}, {"measurement": "Body weight change", "setting": "[3]; Day 1, mean ± SD", "result": 0, "unit": "%"}, {"measurement": "Body weight change", "setting": "[3]; Day 4, mean ± SD", "result": "−11.0 ± 1.0", "unit": "%"}, {"measurement": "Body weight change", "setting": "[3]; Day 7, mean ± SD", "result": "−17.6 ± 2.6", "unit": "%"}, {"measurement": "Body weight change", "setting": "[3]; Day 10, mean ± SD", "result": "−22.6 ± 5.9", "unit": "%"}, {"measurement": "Body weight change", "setting": "[3]; Day 13, mean ± SD", "result": "−22.3 ± 6.3", "unit": "%"}, {"measurement": "Body weight change", "setting": "[3]; Day 16, mean ± SD", "result": "−22.7 ± 6.9", "unit": "%"}, {"measurement": "Body weight change", "setting": "[3]; Day 19, mean ± SD", "result": "−25.9 ± 6.2", "unit": "%"}, {"measurement": "Body weight change", "setting": "[3]; Day 22, mean ± SD", "result": "−23.9 ± 5.6", "unit": "%"}, {"measurement": "Body weight change", "setting": "[3]; Day 25, mean ± SD", "result": "−23.9 ± 5.6", "unit": "%"}, {"measurement": "Body weight change", "setting": "[3]; Day 28, mean ± SD", "result": "−25.5 ± 5.3", "unit": "%"}, {"measurement": "area under the blood glucose curve reduced compared with placebo", "setting": "[4]; 10 nmol/kg", "result": "more than 60%"}, {"measurement": "AUC (area under the blood glucose curve)", "setting": "[4]; 10 nmol/kg s.c., 0-120 min", "result": "10.7 ± 1.8", "unit": "mmol·h/L"}, {"measurement": "Blood glucose", "setting": "[4]; 10 nmol/kg s.c., 0 min", "result": "4.4 ± 0.8", "unit": "mmol/L"}, {"measurement": "Blood glucose", "setting": "[4]; 10 nmol/kg s.c., 15 min", "result": "6.7 ± 0.8", "unit": "mmol/L"}, {"measurement": "Blood glucose", "setting": "[4]; 10 nmol/kg s.c., 30 min", "result": "6.2 ± 1.3", "unit": "mmol/L"}, {"measurement": "Blood glucose", "setting": "[4]; 10 nmol/kg s.c., 60 min", "result": "5.7 ± 1.2", "unit": "mmol/L"}, {"measurement": "Blood glucose", "setting": "[4]; 10 nmol/kg s.c., 120 min", "result": "3.8 ± 1.1", "unit": "mmol/L"}]}, {"molecule": "Y[Aib]EGTFTSDYSIYK([AEEA-AEEA-γGlu-Arachidoyl])DKIAAQEFVNWLLAGGPSSGAPPPS-NH2", "note": "[compound 7#]", "values": [{"measurement": "Activity against human GLP-1R (EC50 nM); cAMP HTRF, CHO-K1/GLP-1R/CRE-luc cells", "setting": "[5]", "result": 0.021, "unit": "nM"}, {"measurement": "Activity against human GIPR (EC50 nM); cAMP HTRF, CHO-K1 cells overexpressing hGIP receptor", "setting": "[6]", "result": 0.11, "unit": "nM"}]}, {"molecule": "Y[Aib]EGTFTSDYSIYK([AEEA-AEEA-γGlu-Arachidoyl])ERIAAQEFVNWLLAGGPSSGAPPPS-NH2 (N-terminus assumed; SMILES CCCCCCCCCCCCCCCCCCCC(=O)N[C@@H](CCC(=O)NCCOCCOCC(=O)NCCOCCOCC(=O)NCCCC[C@H](NC(=O)[C@H](Cc1ccc(O)cc1)NC(=O)[C@@H](NC(=O)[C@H](CO)NC(=O)[C@H](Cc1ccc(O)cc1)NC(=O)[C@H](CC(=O)O)NC(=O)[C@H](CO)NC(=O)[C@@H](NC(=O)[C@H](Cc1ccccc1)NC(=O)[C@@H](NC(=O)CNC(=O)[C@H](CCC(=O)O)NC(=O)C(C)(C)NC(=O)[C@@H](N)Cc1ccc(O)cc1)[C@@H](C)O)[C@@H](C)O)[C@@H](C)CC)C(=O)N[C@@H](CCC(=O)O)C(=O)N[C@@H](CCCNC(=N)N)C(=O)N[C@H](C(=O)N[C@@H](C)C(=O)N[C@@H](C)C(=O)N[C@@H](CCC(N)=O)C(=O)N[C@@H](CCC(=O)O)C(=O)N[C@@H](Cc1ccccc1)C(=O)N[C@H](C(=O)N[C@@H](CC(N)=O)C(=O)N[C@@H](Cc1c[nH]c2ccccc12)C(=O)N[C@@H](CC(C)C)C(=O)N[C@@H](CC(C)C)C(=O)N[C@@H](C)C(=O)NCC(=O)NCC(=O)N1CCC[C@H]1C(=O)N[C@@H](CO)C(=O)N[C@@H](CO)C(=O)NCC(=O)N[C@@H](C)C(=O)N1CCC[C@H]1C(=O)N1CCC[C@H]1C(=O)N1CCC[C@H]1C(=O)N[C@@H](CO)C(N)=O)C(C)C)[C@@H](C)CC)C(=O)O)", "note": "[compound 17#]", "values": [{"measurement": "Activity against human GLP-1R (EC50 nM); cAMP HTRF, CHO-K1/GLP-1R/CRE-luc cells", "setting": "[7]", "result": 0.022, "unit": "nM"}, {"measurement": "Activity against human GIPR (EC50 nM); cAMP HTRF, CHO-K1 cells overexpressing hGIP receptor", "setting": "[8]", "result": 0.11, "unit": "nM"}]}, {"molecule": "Y[Aib]EGTFTSDYSIYK([AEEA-AEEA-γGlu-Arachidoyl])EKIAAQEFVNWLLAGGPSSGAPPPS-NH2", "note": "[compound 18#]", "values": [{"measurement": "Activity against human GLP-1R (EC50 nM); cAMP HTRF, CHO-K1/GLP-1R/CRE-luc cells", "setting": "[7]", "result": 0.013, "unit": "nM"}, {"measurement": "Activity against human GIPR (EC50 nM); cAMP HTRF, CHO-K1 cells overexpressing hGIP receptor", "setting": "[8]", "result": 0.06, "unit": "nM"}]}, {"molecule": "Y[Aib]EGTFTSDYSIYK([AEEA-AEEA-γGlu-Arachidoyl])EKIAAQEFINWLLAGGPSSGAPPPS-NH2 (N-terminus assumed; SMILES CCCCCCCCCCCCCCCCCCCC(=O)N[C@@H](CCC(=O)NCCOCCOCC(=O)NCCOCCOCC(=O)NCCCC[C@H](NC(=O)[C@H](Cc1ccc(O)cc1)NC(=O)[C@@H](NC(=O)[C@H](CO)NC(=O)[C@H](Cc1ccc(O)cc1)NC(=O)[C@H](CC(=O)O)NC(=O)[C@H](CO)NC(=O)[C@@H](NC(=O)[C@H](Cc1ccccc1)NC(=O)[C@@H](NC(=O)CNC(=O)[C@H](CCC(=O)O)NC(=O)C(C)(C)NC(=O)[C@@H](N)Cc1ccc(O)cc1)[C@@H](C)O)[C@@H](C)O)[C@@H](C)CC)C(=O)N[C@@H](CCC(=O)O)C(=O)N[C@@H](CCCCN)C(=O)N[C@H](C(=O)N[C@@H](C)C(=O)N[C@@H](C)C(=O)N[C@@H](CCC(N)=O)C(=O)N[C@@H](CCC(=O)O)C(=O)N[C@@H](Cc1ccccc1)C(=O)N[C@H](C(=O)N[C@@H](CC(N)=O)C(=O)N[C@@H](Cc1c[nH]c2ccccc12)C(=O)N[C@@H](CC(C)C)C(=O)N[C@@H](CC(C)C)C(=O)N[C@@H](C)C(=O)NCC(=O)NCC(=O)N1CCC[C@H]1C(=O)N[C@@H](CO)C(=O)N[C@@H](CO)C(=O)NCC(=O)N[C@@H](C)C(=O)N1CCC[C@H]1C(=O)N1CCC[C@H]1C(=O)N1CCC[C@H]1C(=O)N[C@@H](CO)C(N)=O)[C@@H](C)CC)[C@@H](C)CC)C(=O)O)", "note": "[compound 16#]", "values": [{"measurement": "Activity against human GLP-1R (EC50 nM); cAMP HTRF, CHO-K1/GLP-1R/CRE-luc cells", "setting": "[7]", "result": 0.029, "unit": "nM"}, {"measurement": "Activity against human GIPR (EC50 nM); cAMP HTRF, CHO-K1 cells overexpressing hGIP receptor", "setting": "[8]", "result": 0.095, "unit": "nM"}]}]}
